In this experiment the target is hTRPM3 (transient receptor potential melastatin 3) (Homo sapiens, UniProt Q9HCF6). The format is cell-based.

The results in this text go back to publication PMC4485020 (The Journal of General Physiology, 2015).

Molecules are shown by their SMILES.

hTRPM3 (transient receptor potential melastatin 3), sequence (Q9HCF6 whole entry): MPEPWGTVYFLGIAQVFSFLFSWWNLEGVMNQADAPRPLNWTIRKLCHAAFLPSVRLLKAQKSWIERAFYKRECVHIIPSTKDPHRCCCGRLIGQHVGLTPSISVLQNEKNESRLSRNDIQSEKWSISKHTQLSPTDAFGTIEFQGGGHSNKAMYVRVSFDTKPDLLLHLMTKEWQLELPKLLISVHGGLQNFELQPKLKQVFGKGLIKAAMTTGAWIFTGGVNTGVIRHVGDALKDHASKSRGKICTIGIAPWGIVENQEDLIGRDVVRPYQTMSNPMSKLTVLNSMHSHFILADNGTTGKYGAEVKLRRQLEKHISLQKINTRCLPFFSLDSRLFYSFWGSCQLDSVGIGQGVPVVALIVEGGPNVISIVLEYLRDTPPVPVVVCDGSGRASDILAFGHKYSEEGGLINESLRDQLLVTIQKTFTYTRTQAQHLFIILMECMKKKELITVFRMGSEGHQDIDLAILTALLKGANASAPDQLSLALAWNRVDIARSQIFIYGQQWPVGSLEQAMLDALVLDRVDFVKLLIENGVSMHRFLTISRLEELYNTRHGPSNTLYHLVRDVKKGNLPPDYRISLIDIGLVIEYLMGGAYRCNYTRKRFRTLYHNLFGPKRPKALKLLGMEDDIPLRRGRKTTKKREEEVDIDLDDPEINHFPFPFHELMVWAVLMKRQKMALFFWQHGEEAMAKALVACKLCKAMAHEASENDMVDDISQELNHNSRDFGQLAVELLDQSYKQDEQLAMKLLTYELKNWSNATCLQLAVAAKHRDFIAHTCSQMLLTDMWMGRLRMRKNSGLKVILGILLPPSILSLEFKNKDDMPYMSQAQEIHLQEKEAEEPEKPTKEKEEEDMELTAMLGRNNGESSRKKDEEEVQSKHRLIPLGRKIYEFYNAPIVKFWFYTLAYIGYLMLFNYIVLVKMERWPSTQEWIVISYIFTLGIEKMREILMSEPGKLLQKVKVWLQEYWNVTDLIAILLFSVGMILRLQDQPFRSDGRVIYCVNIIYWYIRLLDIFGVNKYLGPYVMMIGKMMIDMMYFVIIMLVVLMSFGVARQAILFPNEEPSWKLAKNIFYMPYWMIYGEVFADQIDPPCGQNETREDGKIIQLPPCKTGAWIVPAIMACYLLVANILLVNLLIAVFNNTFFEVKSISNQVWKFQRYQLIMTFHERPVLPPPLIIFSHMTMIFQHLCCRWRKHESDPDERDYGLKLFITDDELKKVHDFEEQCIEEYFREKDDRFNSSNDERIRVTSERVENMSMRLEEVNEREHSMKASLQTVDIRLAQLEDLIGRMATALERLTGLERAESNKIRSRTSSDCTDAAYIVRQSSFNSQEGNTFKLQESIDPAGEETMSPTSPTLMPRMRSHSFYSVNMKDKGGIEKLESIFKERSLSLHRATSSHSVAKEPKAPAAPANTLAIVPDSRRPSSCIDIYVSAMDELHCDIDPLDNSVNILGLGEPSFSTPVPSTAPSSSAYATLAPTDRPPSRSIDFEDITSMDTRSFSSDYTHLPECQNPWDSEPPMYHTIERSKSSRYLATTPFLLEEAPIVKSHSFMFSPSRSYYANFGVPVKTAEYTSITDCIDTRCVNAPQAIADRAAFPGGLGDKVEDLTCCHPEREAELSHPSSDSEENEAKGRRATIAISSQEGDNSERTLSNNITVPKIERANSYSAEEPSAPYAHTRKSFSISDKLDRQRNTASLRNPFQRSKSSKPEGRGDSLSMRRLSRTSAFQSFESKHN

By EC50 is commonly meant the midpoint of the concentration-response curve. Compound `CCCCCCCC(=O)OC[C@H](COP(=O)(O)O[C@@H]1[C@H](O)[C@H](O)[C@@H](OP(=O)(O)O)[C@H](OP(=O)(O)O)[C@H]1O)OC(=O)CCCCCCC` [diC8 PI(4,5)P2] displayed an EC50 of 18 µM.
